Experimental data reported in patent US9403866B2, “Compositions and methods for increasing telomerase activity” (Telomerase Activation Sciences, Inc., priority 2009, dated 2016).

Molecular target: T1, telomerase (Mus musculus, UniProt O70372)
T1 construct: endogenous in cells; host or cells: lineage-depleted bone marrow cells, wild-type mice
T1 sequence (O70372 1-1122): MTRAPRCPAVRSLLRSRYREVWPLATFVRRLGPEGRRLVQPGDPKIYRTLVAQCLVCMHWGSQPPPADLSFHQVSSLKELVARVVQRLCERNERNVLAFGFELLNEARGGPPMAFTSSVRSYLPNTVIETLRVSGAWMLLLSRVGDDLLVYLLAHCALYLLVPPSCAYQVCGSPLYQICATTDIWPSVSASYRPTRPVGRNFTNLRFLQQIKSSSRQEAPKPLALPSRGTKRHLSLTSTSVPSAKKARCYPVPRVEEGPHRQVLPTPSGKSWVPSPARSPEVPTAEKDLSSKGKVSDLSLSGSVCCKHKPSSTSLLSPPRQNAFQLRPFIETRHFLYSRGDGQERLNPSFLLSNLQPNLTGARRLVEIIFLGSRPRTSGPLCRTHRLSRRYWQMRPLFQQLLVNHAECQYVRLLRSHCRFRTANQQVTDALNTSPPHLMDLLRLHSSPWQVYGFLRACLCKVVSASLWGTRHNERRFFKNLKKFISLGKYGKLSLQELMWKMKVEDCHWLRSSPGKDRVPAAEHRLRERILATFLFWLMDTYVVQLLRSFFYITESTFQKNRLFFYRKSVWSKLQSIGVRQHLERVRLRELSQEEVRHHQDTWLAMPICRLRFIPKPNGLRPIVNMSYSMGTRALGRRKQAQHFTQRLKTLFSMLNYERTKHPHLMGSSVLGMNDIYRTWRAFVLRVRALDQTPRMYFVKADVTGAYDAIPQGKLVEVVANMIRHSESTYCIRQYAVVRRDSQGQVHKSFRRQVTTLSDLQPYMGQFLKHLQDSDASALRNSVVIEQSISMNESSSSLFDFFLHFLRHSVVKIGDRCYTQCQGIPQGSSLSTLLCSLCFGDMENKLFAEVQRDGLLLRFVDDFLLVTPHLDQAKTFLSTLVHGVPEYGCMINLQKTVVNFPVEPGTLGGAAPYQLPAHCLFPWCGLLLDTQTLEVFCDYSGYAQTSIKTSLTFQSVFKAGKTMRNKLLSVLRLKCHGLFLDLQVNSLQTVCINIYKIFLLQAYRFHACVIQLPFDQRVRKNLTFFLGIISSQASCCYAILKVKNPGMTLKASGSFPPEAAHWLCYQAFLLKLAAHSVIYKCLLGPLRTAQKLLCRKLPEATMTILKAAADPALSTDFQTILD
Assay: Telomerase activity in short-term liquid culture, lineage-depleted bone marrow cells from mTERT heterozygous mice
Format: cell-based
Conditions: 1 uM, three days
Method: Lineage-depleted bone marrow cells from mTERT heterozygous and wild type mice were grown in IMDM+15% FBS containing stem cell factor (Kitl), IL-3, and IL-11 for three days in the presence of compound 4 (1 uM, 100 nM, or 10 nM), vehicle (0.1% DMSO), or nothing. Telomerase activity in the wild-type cells increased by 40-50% when treated with 100 nM and 1 uM compound 4, relative to the vehicle-treated control.
Telomerase activity in the mTERT heterozygous cells increased by 50% when treated with 1 uM compound 4, relative to the vehicle-treated control.

## CC(C)C(N)C(=O)OC1CCC23CC24CCC2(C)C(C5(C)CCC(C(C)(C)O)O5)C(O)CC2(C)C4CC(O)C3C1(C)C (stereo not drawn) [Compound 4, 2-(L)-Amino-3-methyl-butyric acid 6α,16β-dihydroxy-17-[5-(1-hydroxy-1-methyl-ethyl)-2-methyl-tetrahydro-furan-2-yl]-4,4,13,14-tetramethyl-tetradecahydro-cyclopropa[9,10]cyclopenta[a]phenanthren-3β-yl ester]
  Telomerase activity increase relative to the vehicle-treated control: 50%
